Broadly, the IC50 is the concentration that inhibits the measured activity by half. Read a low IC50 as greater potency.

From ChEMBL document CHEMBL1125859, “Synthesis and evaluation of antiinflammatory activities of a series of corticosteroid 17 alpha-esters containing a functional group” (J Med Chem, 1991) come the findings set out here.

A value given as a limit tells only on which side of the number the result lay.

The species named for assay [1] is Mus musculus. The assay is described as follows: Anti-inflammatory activity in mouse croton oil ear assay relative to clobetasol propionate. Type of assay: functional.
Assay [2] is filed under the species Rattus norvegicus. The assay is described as follows: The thymolytic activity was measured relative to clobetasol propionate (CP=1) in rat granuloma pouch assay system. It counts as functional.
A short description of assay [3]: It is the ratio of topical(edema inhibition) to systemic (thymolysis) activities. Type of assay: functional.
Assay [4] addresses T1, Glucocorticoid receptor (Rattus norvegicus, UniProt P06536).
T1 sequence (P06536 whole entry): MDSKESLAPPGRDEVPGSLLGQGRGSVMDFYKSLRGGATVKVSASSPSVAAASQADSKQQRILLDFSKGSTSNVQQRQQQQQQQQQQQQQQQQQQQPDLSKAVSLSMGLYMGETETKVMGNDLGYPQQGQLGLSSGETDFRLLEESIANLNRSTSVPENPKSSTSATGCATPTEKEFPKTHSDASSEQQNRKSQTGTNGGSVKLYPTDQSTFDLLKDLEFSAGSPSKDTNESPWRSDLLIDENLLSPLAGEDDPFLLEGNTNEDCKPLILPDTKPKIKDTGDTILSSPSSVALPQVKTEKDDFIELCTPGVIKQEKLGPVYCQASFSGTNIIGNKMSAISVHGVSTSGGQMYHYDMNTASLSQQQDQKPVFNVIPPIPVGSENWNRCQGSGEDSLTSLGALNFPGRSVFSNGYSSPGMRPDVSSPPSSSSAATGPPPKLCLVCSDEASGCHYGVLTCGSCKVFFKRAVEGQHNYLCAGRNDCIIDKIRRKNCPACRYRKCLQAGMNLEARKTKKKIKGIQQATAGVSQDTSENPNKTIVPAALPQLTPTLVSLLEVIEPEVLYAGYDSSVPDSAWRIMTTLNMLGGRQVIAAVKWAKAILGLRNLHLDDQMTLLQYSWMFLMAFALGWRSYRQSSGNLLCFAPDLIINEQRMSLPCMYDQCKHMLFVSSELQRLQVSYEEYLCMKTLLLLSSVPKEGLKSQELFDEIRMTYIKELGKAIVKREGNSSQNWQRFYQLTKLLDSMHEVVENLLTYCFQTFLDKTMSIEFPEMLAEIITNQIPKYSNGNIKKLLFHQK
Nature of the assay: Competitive displacement of [3H]dexamethasone from glucocorticoid receptor of rat liver cytosol. For orientation: Displacement assays read how much labelled ligand stays bound in the presence of the test substance.

Assay [5] is filed under the species Rattus norvegicus. Nature of the assay: The thymolytic activity was measured relative to clobetasol propionate (CP=1) in rat granuloma pouch assay system; granuloma inhibition or thymolytic activity was not detected up to 100 ug/pouch. It counts as functional.

`C[C@H]1CC2C3CCC4=CC(=O)C=CC4(C)[C@@]3(F)[C@@H](O)CC2(C)[C@@]1(OC(=O)CCC#N)C(=O)CCl` (stereo not given in full) yielded a Fold_activity in assay [1] of 0.07.
On to `C[C@H]1CC2C3CCC4=CC(=O)C=CC4(C)[C@@]3(F)[C@@H](O)CC2(C)[C@@]1(OC(=O)C1CC1)C(=O)CCl` (stereo not given in full), for which the Fold_activity in assay [1] is 0.44. The Thymolysis in assay [2] is 1.3. In addition, the Ratio in assay [3] was found to be 0.34.
For `CC(=O)OCCC(=O)O[C@]1(C(=O)CCl)[C@@H](C)CC2C3CCC4=CC(=O)C=CC4(C)[C@@]3(F)[C@@H](O)CC21C` (stereo not given in full) the same measures were 0.28, 0.015 and 18.6.
In assay [4], `COC(=O)CCC(=O)O[C@]1(C(=O)CCl)[C@@H](C)CC2C3CCC4=CC(=O)C=CC4(C)[C@@]3(F)[C@@H](O)CC21C` (stereo not given in full) yielded an IC50 of 5.18 nM. In assay [1], this molecule came in with a Fold_activity of 1.3. The molecule also gave a Thymolysis in assay [5] of less than 0.01. In addition, the Ratio in assay [3] is greater than 130.
In the case of `CCOC(=O)CCC(=O)O[C@]1(C(=O)CCl)[C@@H](C)CC2C3CCC4=CC(=O)C=CC4(C)[C@@]3(F)[C@@H](O)CC21C` (stereo not given in full), the Fold_activity in assay [1] came to 0.56.
In assay [4], `C[C@H]1CC2C3CCC4=CC(=O)C=CC4(C)[C@@]3(F)[C@@H](O)CC2(C)[C@@]1(OC(=O)CCC(=O)O)C(=O)CCl` (stereo not given in full) yielded a concentration for half-maximal inhibition (IC50) greater than 150 nM. The Fold_activity in assay [1] was less than 0.01.
`CSCC(=O)O[C@]1(C(=O)CCl)[C@@H](C)CC2C3CCC4=CC(=O)C=CC4(C)[C@@]3(F)[C@@H](O)CC21C` (stereo not given in full): the Fold_activity in assay [1] was determined as 0.35. The molecule also returned a Thymolysis in assay [2] of 0.35. Besides, in assay [3], the Ratio was 1.
`CC(C)OC(=O)CCC(=O)O[C@]1(C(=O)CCl)[C@@H](C)CC2C3CCC4=CC(=O)C=CC4(C)[C@@]3(F)[C@@H](O)CC21C` (stereo not given in full) returned a concentration for half-maximal inhibition (IC50) in assay [4] of 12.1 nM. Moreover, in assay [1], the Fold_activity came out at 0.11.
`C[C@H]1CC2C3CCC4=CC(=O)C=CC4(C)[C@@]3(F)[C@@H](O)CC2(C)[C@@]1(OC(=O)CCl)C(=O)CCl` (stereo not given in full) displayed a Fold_activity in assay [1] of 0.25.
In the case of `COCCC(=O)O[C@]1(C(=O)CCl)[C@@H](C)CC2C3CCC4=CC(=O)C=CC4(C)[C@@]3(F)[C@@H](O)CC21C` (stereo not given in full), the Fold_activity in assay [1] amounted to 0.38. This molecule registered a Thymolysis in assay [2] of 0.05. The Ratio in assay [3] turned out to be 7.6.
For `C[C@H]1CC2C3CCC4=CC(=O)C=CC4(C)[C@@]3(F)[C@@H](O)CC2(C)[C@@]1(OC(=O)CC1CC1)C(=O)CCl` (stereo not given in full), in that order: 0.51, 1.1 and 0.46.
In the case of `C[C@H]1CC2C3CCC4=CC(=O)C=CC4(C)[C@@]3(F)[C@@H](O)CC2(C)[C@@]1(OC(=O)CCC(=O)OC(C)(C)C)C(=O)CCl` (stereo not given in full), the half-inhibitory concentration (IC50) in assay [4] amounted to 10.8 nM. The Fold_activity in assay [1] is given as 0.19.
`CCC(=O)OCC(=O)[C@@]1(OC(=O)CC)[C@@H](C)C[C@H]2[C@@H]3CCC4=CC(=O)C=C[C@]4(C)[C@@]3(F)[C@@H](O)C[C@@]21C` [BETAMETHASONE DIPROPIONATE]: the Thymolysis in assay [2] came to 0.03.
For `COCC(=O)O[C@]1(C(=O)CCl)[C@@H](C)CC2C3CCC4=CC(=O)C=CC4(C)[C@@]3(F)[C@@H](O)CC21C` (stereo not given in full), the Fold_activity in assay [1] amounted to 0.11.
The same measure, in the same setting: as for `COC(=O)CCCC(=O)O[C@]1(C(=O)CCl)[C@@H](C)CC2C3CCC4=CC(=O)C=CC4(C)[C@@]3(F)[C@@H](O)CC21C` (stereo not given in full), the figure is 0.45.
In assay [1], `C[C@H]1CC2C3CCC4=CC(=O)C=CC4(C)[C@@]3(F)[C@@H](O)CC2(C)[C@@]1(OC(=O)CCCCl)C(=O)CCl` (stereo not given in full) returned a Fold_activity of 0.66. Further, in assay [2], the Thymolysis is reported as 0.12. Moreover, the Ratio in assay [3] amounted to 5.5.
In turn, `CCC(=O)O[C@]1(C(=O)CCl)[C@@H](C)C[C@H]2[C@@H]3CCC4=CC(=O)C=C[C@]4(C)[C@@]3(F)[C@@H](O)C[C@@]21C` [CLOBETASOL PROPIONATE] displayed an IC50 in assay [4] of 3.17 nM. Moreover, the Fold_activity in assay [1] is 1. In assay [2], this molecule registered a Thymolysis of 1. In addition, in assay [3], the Ratio was 1.
The molecule `CCOC(=O)CCCC(=O)O[C@]1(C(=O)CCl)[C@@H](C)CC2C3CCC4=CC(=O)C=CC4(C)[C@@]3(F)[C@@H](O)CC21C` (stereo not given in full) registered a half-maximal inhibitory concentration (IC50) in assay [4] of 9.68 nM. The molecule also had a Fold_activity in assay [1] of 0.68.
